The conditions of data set [1]: 60° C. temperature and 75% relative humidity; resulting in gum type or liquefied form. The text has this: European Patent No. 281,459 B1 and U.S. Pat. No. 4,847,265 disclose a number of acid addition salts of clopidogrel prepared using various inorganic or organic acids.
For data set [2] the following is noted: orally administered to rat; cited from earlier work.

Where a name gives a salt, the structure may show the parent alone.

For hydrochloride, in data set [1], the Hygroscopicity entry is on record as “highly hygroscopic”.

Regarding `Br` [hydrobromide], the Hygroscopicity entry in data set [1] is listed as “highly hygroscopic”.

As for `O=S(=O)(O)c1cccc2c(S(=O)(=O)O)cccc12` [1,5-naphthalenedisulfonic acid], in data set [2], the LD50 is 2,420 mg/kg.

These data come from patent US7470707B2, “Crystalline monohydrate clopidogrel naphthalenedisulfonate and process of preparation” (Hanmi Pharm. Co., Ltd, priority 2004, dated 2008).
